Source: publication PMC8213057, “Targeting ALK2: An Open Science Approach to Developing Therapeutics for the Treatment of Diffuse Intrinsic Pontine Glioma” (Journal of Medicinal Chemistry, 2020)

What was measured:
PIM2 = PIM2 (Homo sapiens, UniProt Q9P1W9); test: biochemical; settings: read-out: % enzyme activity, 1 μM; Run 1, Run 2
PLK2 = PLK2 (Homo sapiens, UniProt Q9NYY3); settings: 1 μM; Run 1, Run 2
BRSK2 = target: T1, BRSK2 (Homo sapiens, UniProt Q8IWQ3); test: biochemical; settings: read-out: % enzyme activity, 1 μM; Run 1, Run 2
T1 sequence (Q8IWQ3 1-736): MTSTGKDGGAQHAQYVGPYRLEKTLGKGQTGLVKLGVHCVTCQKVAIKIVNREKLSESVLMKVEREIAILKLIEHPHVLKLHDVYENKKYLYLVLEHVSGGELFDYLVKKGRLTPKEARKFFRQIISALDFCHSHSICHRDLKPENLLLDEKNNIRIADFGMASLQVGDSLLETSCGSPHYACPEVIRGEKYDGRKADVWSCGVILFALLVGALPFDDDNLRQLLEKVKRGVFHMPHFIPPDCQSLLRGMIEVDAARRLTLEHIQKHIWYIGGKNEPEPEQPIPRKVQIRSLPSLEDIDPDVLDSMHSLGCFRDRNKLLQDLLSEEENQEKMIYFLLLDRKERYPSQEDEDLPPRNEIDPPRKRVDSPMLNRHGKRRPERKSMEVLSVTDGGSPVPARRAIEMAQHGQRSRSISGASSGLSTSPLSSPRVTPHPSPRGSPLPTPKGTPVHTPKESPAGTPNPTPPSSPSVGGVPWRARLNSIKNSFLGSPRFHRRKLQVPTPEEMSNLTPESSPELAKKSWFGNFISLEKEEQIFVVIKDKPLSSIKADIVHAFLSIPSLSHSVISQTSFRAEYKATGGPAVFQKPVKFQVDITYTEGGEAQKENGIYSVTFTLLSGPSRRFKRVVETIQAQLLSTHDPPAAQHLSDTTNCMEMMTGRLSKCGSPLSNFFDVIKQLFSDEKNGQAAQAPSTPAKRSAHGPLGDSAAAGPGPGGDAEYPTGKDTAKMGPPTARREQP

HIPK4 = target: T2, HIPK4 (Homo sapiens, UniProt Q8NE63); settings: 1 μM; Run 1, Run 2
T2 sequence (Q8NE63 1-616): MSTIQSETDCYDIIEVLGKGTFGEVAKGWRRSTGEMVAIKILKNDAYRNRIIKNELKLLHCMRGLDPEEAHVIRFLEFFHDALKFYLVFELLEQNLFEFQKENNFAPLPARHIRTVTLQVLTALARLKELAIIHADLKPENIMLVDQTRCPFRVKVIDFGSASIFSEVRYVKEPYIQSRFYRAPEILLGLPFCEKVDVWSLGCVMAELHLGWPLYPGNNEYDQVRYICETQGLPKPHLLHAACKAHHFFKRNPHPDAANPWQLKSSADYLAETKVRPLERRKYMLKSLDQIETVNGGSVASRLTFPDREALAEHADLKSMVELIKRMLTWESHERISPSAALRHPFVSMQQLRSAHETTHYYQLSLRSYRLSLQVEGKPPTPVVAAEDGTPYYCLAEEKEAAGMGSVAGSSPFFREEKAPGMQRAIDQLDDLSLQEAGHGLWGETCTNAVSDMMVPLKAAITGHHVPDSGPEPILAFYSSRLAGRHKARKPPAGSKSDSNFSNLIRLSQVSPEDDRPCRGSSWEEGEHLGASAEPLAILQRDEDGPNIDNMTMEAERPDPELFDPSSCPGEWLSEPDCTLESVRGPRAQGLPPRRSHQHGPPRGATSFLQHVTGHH

PAK2 = PAK2 (Homo sapiens, UniProt Q13177); test: biochemical; settings: read-out: % enzyme activity, 1 μM; Run 1, Run 2
Sequence of PAK2 (Q13177 whole entry): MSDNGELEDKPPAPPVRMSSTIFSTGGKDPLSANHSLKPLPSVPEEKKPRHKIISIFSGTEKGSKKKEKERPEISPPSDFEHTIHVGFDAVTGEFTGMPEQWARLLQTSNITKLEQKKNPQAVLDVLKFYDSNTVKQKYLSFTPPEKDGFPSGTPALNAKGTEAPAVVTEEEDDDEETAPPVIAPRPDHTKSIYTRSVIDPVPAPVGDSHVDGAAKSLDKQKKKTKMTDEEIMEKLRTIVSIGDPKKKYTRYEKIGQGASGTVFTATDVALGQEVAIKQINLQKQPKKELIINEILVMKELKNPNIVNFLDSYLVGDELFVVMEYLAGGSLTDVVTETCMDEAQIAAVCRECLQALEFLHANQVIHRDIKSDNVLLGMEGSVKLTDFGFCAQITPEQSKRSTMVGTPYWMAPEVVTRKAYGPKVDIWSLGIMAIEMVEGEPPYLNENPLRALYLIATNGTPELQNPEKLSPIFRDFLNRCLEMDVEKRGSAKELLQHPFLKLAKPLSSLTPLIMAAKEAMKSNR

PRKX = target: T3, PRKX (Homo sapiens, UniProt P51817); settings: 1 μM; Run 1, Run 2
T3 sequence (P51817 1-358): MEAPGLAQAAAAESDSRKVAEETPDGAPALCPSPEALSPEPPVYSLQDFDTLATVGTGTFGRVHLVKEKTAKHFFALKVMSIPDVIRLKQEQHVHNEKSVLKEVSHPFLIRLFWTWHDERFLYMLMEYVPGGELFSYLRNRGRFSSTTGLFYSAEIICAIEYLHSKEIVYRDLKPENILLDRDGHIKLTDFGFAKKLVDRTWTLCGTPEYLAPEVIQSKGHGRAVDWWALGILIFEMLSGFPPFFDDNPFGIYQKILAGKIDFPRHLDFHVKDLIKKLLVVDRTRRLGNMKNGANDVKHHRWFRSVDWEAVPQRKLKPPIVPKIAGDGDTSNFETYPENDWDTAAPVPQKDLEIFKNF

MLCK2/MYLK2 = MLCK2/MYLK2 (Homo sapiens, UniProt Q9H1R3); settings: 1 μM; Run 1, Run 2
Sequence of MLCK2/MYLK2 (Q9H1R3 whole entry): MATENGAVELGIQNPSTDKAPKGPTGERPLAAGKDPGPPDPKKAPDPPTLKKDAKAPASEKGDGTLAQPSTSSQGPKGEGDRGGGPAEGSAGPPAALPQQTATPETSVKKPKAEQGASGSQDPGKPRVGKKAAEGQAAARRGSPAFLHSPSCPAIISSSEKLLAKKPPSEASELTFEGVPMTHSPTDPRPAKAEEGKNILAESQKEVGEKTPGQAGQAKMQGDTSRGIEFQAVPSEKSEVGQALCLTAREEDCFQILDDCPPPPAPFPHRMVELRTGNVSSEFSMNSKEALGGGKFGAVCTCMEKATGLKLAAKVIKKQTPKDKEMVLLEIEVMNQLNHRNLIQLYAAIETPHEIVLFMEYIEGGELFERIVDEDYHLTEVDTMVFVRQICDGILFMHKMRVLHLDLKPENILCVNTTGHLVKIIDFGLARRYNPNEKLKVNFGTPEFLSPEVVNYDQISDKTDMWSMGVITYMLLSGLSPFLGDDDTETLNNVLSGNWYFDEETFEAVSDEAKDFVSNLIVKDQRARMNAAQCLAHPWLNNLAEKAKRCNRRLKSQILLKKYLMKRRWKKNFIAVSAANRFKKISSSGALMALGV

PAK4 = PAK4 (Homo sapiens, UniProt O96013); test: biochemical; settings: read-out: % enzyme activity, 1 μM; Run 1, Run 2
Sequence of PAK4 (O96013 whole entry): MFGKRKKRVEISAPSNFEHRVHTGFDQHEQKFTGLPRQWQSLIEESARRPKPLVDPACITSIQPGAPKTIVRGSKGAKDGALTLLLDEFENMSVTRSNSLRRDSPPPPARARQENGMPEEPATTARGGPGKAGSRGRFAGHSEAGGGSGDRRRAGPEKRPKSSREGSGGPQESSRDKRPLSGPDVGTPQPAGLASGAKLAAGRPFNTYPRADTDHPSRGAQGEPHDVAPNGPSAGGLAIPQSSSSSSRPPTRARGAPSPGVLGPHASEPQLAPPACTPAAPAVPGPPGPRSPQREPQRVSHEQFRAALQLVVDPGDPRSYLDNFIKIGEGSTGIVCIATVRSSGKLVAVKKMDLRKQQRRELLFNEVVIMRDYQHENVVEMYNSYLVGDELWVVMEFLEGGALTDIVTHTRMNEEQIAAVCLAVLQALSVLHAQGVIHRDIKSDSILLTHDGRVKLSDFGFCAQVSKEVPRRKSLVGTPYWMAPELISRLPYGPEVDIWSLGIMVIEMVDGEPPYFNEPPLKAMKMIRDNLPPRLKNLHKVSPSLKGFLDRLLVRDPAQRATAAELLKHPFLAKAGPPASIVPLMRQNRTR

ERK1 = ERK1 (Homo sapiens, UniProt P27361); settings: 1 μM; Run 1, Run 2
Sequence of ERK1 (P27361 whole entry): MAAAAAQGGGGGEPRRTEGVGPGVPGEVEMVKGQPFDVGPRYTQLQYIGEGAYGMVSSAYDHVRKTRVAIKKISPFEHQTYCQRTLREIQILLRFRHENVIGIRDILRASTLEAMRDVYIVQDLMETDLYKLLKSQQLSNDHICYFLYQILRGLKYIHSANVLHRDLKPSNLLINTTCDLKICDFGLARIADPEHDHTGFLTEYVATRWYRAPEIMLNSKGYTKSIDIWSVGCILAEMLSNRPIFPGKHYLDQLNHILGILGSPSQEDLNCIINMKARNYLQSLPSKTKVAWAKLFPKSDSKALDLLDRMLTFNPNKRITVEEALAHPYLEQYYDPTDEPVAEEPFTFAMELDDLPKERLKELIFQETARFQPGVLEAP

Sequence of PIM2 (Q9P1W9 whole entry): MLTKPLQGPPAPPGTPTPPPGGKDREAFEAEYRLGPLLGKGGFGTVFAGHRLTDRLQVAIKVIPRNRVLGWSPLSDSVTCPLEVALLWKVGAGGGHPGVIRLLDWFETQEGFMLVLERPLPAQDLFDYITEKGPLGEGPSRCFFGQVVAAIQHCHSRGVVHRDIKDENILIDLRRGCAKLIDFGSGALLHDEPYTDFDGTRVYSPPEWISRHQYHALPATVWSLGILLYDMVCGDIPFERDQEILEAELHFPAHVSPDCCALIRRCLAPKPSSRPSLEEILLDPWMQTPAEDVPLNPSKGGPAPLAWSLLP
Sequence of PLK2 (Q9NYY3 whole entry): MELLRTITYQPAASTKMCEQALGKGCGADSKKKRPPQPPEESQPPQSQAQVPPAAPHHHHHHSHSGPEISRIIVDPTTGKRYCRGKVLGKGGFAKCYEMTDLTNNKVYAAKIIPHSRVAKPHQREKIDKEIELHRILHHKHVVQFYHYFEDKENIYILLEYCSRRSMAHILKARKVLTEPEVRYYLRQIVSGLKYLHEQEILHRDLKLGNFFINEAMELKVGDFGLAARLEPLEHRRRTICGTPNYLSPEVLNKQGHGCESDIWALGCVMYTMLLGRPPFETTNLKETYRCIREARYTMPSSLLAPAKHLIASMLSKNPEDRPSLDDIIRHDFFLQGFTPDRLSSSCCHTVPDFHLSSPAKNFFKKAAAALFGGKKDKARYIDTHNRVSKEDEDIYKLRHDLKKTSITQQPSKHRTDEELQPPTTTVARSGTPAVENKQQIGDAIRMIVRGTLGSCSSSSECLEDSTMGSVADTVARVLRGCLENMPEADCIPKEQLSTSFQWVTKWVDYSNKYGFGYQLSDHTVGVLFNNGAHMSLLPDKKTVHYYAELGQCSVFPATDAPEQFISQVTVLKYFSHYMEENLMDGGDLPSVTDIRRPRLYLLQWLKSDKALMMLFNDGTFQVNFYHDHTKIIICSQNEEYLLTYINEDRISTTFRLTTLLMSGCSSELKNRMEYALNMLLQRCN

Row | SMILES | remaining activity at 1 µM (PIM2) | % enzyme activity (PLK2) | remaining activity at 1 µM (BRSK2) | % enzyme activity (HIPK4) | remaining activity at 1 µM (PAK2) | % enzyme activity (PRKX) | % enzyme activity (MLCK2/MYLK2) | remaining activity at 1 µM (PAK4) | % enzyme activity (ERK1)
1 | COc1cc(-c2cncc(-c3ccc(N4C[C@@H](C)N(C)[C@@H](C)C4)cc3)c2C)cc(F)c1C(N)=O [Compound 26c, 2-Fluoro-6-methoxy-4-(4-methyl-5-(4-((3R,5S)-3,4,5-trimethylpiperazin-1-yl)phenyl)pyridin-3-yl)benzamide] | 99.7% | 102.38% | 77.9% | 97.53% | 104% | 90.55% | 82.74% | 99.9% | 94.56%
2 | COc1cc(-c2cncc(-c3ccc(N4CCN(C)CC4)cc3)c2C)cc(F)c1C(N)=O [Compound 26a, 2-Fluoro-6-methoxy-4-(4-methyl-5-(4-(4-methylpiperazin-1-yl)phenyl)pyridin-3-yl)benzamide] | 99.2% | 97.24% | 61.3% | 102.90% | 101% | 99.24% | 66.59% | 98.5% | 94.73%
